The text below walks through data of patent US20240270762A1, “PENICILLIN-BINDING PROTEIN INHIBITORS” (priority 2021, published 2024).

The test system of experiment [1] is P. aeruginosa ATCC 27853. The experiment in a line: microbe, parasite or virus in culture. The format is cell-based. The note with it: Pseudomonas aeruginosa, ATCC27853, read-out: Minimum inhibitory concentration, P. aeruginosa ATCC 27853.
The subject of experiment [2] is P. aeruginosa CDC-0095. The experiment in a line: microbe, parasite or virus in culture. The format is cell-based. The note with it: Pseudomonas aeruginosa, CDC0095, read-out: Minimum inhibitory concentration, P. aeruginosa CDC-0095.
Experiment [3] concerns P. aeruginosa ATCC 35151. The experiment in a line: microbe, parasite or virus in culture. The format is cell-based. To be noted: Pseudomonas aeruginosa, ATCC35151, read-out: Minimum inhibitory concentration, P. aeruginosa ATCC 35151.
Experiment [4] deals with A. baumannii 1258916. As to the kind of experiment: microbe, parasite or virus in culture. In kind it is cell-based, Acinetobacter baumannii.
Experiment [5] concerns A. baumannii ATCC 19606. As to the kind of experiment: microbe, parasite or virus in culture. In kind it is cell-based. To be noted: Acinetobacter baumannii.
The target of experiment [6] is T1, PBP3 from Acinetobacter baumannii (ATCC 19606) (Acinetobacter baumannii, UniProt A0ABX6CK25).
T1 sequence (A0ABX6CK25 64-610): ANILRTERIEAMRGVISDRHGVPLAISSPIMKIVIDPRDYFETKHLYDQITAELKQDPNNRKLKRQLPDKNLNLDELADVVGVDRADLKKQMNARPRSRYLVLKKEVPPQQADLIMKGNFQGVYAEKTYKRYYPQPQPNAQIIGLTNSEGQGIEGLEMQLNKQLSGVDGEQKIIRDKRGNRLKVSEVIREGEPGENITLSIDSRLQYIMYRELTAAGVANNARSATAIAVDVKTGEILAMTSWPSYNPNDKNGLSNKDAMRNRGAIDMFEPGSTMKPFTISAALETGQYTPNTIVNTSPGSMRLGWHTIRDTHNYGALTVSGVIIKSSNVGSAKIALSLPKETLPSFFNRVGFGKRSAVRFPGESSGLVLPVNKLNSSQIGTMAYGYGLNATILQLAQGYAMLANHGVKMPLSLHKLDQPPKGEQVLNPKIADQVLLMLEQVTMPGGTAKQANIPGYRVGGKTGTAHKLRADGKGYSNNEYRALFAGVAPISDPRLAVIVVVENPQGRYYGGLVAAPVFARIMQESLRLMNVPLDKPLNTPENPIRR
As to the kind of experiment: Bocillin-FL fluorescence polarization competition binding, A. baumannii PBP3. The note with it: fluorescence polarization competition binding assay using Bocillin-FL; read-out: A. baumannii PBP3 Potency. A digest of the protocol:
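Purified PBP was preincubated with inhibitor (E. coli PBP3 1.5 μM, 30 min; P. aeruginosa PBP3 0.75 μM, A. baumannii PBP3 0.2 μM and PBP1a 1 μM, 15 min), then Bocillin-FL (0.1 μM; 0.05 μM for PBP1a) added and FP read up to 60 min. EC50 = 50% loss of bound probe.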

Experiment [7] concerns B. humptydooensis ATCC BAA-2767. As to the kind of experiment: microbe, parasite or virus in culture. The format is cell-based. To be noted: Burkholderia humptydooensis, ATCCBAA2767, read-out: Minimum inhibitory concentration (MIC), B. humptydooensis ATCC BAA-2767.
Experiment [8] has as its system P. aeruginosa CDC-0090. The experiment in a line: microbe, parasite or virus in culture. The format is cell-based. To be noted: Pseudomonas aeruginosa, CDC0090, read-out: Minimum inhibitory concentration, P. aeruginosa CDC-0090.
Experiment [9] relates to A. baumannii CDC-0033. As to the kind of experiment: microbe, parasite or virus in culture. In kind it is cell-based. The note with it: Acinetobacter baumannii.
Experiment [10] relates to A. baumannii ATCC 17978. The experiment in a line: microbe, parasite or virus in culture. In kind it is cell-based. To be noted: Acinetobacter baumannii.
Experiment [11] has as its system P. aeruginosa CDC-0110. The experiment in a line: microbe, parasite or virus in culture. In kind it is cell-based. The note with it: Pseudomonas aeruginosa, CDC0110, read-out: Minimum inhibitory concentration, P. aeruginosa CDC-0110.
The mark [12] stands for this setting: Acinetobacter baumannii, 1258916, read-out: MIC, A. baumannii 1258916.
Where [13] appears, read: ATCC19606, read-out: MIC, A. baumannii ATCC 19606.
The mark [14] stands for this setting: CDC0033, read-out: MIC, A. baumannii CDC-0033.
[15] abbreviates: ATCC17978, read-out: MIC, A. baumannii ATCC 17978.
[16] abbreviates: Acinetobacter baumannii, 1258916, read-out: Minimum inhibitory concentration (MIC), A. baumannii 1258916.
[17] abbreviates: ATCC19606, read-out: Minimum inhibitory concentration (MIC), A. baumannii ATCC 19606.
Setting [18] is: CDC0033, read-out: Minimum inhibitory concentration (MIC), A. baumannii CDC-0033.
[19] abbreviates: ATCC17978, read-out: Minimum inhibitory concentration (MIC), A. baumannii ATCC 17978.

Converted amounts (≈) assume the structure as drawn. Read-outs that look alike come from different tables or passages of the source.

As for `O=C(O)c1c(F)ccc2c1OB(O)[C@@H](NC(=O)[C@H](NC(=O)N1CCN(Cc3ccc(O)c(O)c3Cl)C(=O)C1=O)c1ccc(P(=O)(O)O)cc1)C2` (single isomer, unassigned) [Example 160], the MIC in [1], in [2], in experiment [3], in experiment [4] (setting [12]), in experiment [5] (setting [13]) and in experiment [7] was less than 1 µg/mL in each case. Also, the MIC in [8], in experiment [9] (setting [14]), in [10] (setting [15]) and in [11] was less than 1 µg/mL throughout. The IC50 in experiment [6] was less than 10 µM.
With `O=C(O)c1c(F)ccc2c1OB(O)[C@@H](NC(=O)[C@H](NC(=O)N1CCN(Cc3ccc(O)c(O)c3Cl)C(=O)C1=O)c1cccc(P(=O)(O)O)c1)C2` (single isomer, unassigned) [Example 163], the MIC in experiment [1], in [2], in experiment [3], in experiment [4] (setting [12]), in [5] (setting [13]) and in [7] was less than 1 µg/mL throughout. The MIC in experiment [8] is 2 to 4 µg/mL (≈ 2.72 to 5.44 µM); in experiment [9] (setting [14]), less than 1 µg/mL; in experiment [10] (setting [15]), less than 1 µg/mL; in [11], less than 1 µg/mL. The IC50 in experiment [6] was less than 10 µM.
Consider `O=C(NCCS(=O)(=O)N1CCN(C(=O)N[C@@H](C(=O)N[C@H]2Cc3ccc(F)c(C(=O)O)c3OB2O)c2ccc(P(=O)(O)O)cc2)C1=O)c1ccc(O)c(O)c1Cl` (single isomer, unassigned) [Example 168], for which the MIC in experiment [1] is 8 to 16 µg/mL (≈ 9.66 to 19.3 µM); in experiment [2], 8 to 16 µg/mL (≈ 9.66 to 19.3 µM); in [3], 2 to 4 µg/mL (≈ 2.42 to 4.83 µM); in experiment [4] (setting [12]), 2 to 4 µg/mL (≈ 2.42 to 4.83 µM); in experiment [5] (setting [13]), less than 1 µg/mL; in experiment [7] it was less than 1 µg/mL. The MIC in experiment [8] is 32 to 64 µg/mL (≈ 38.7 to 77.3 µM); in experiment [9] (setting [14]), 32 to 64 µg/mL (≈ 38.7 to 77.3 µM); in experiment [10] (setting [15]), less than 1 µg/mL; in experiment [11], 32 to 64 µg/mL (≈ 38.7 to 77.3 µM). The IC50 in experiment [6] is less than 10 µM.
On to `O=C(NCCCS(=O)(=O)N1CCN(C(=O)N[C@H](C(=O)N[C@H]2Cc3ccc(F)c(C(=O)O)c3OB2O)c2ccc(P(=O)(O)O)cc2)C1=O)c1ccc(O)c(O)c1Cl` (single isomer, unassigned) [Example 169], for which the MIC in [1], in [2], in [3], in experiment [4] (setting [12]), in experiment [5] (setting [13]) and in experiment [7] was more than 128 µg/mL in each case. Also, the MIC in experiment [8], in experiment [9] (setting [14]), in experiment [10] (setting [15]) and in experiment [11] was more than 128 µg/mL throughout. For the same compound, in experiment [6], the IC50 fell in the range of 10 to 50 µM.
With `O=C(O)c1c(F)ccc2c1OB(O)[C@@H](NC(=O)[C@@H](NC(=O)N1CCN(C3CCN(C(=O)c4ccc(O)cc4)CC3)C1=O)c1cc(F)c(O)c(O)c1Cl)C2` (single isomer, unassigned) [Example 462], the MIC in experiment [1] was 2 to 4 µg/mL (≈ 2.64 to 5.28 µM); in experiment [2] it was 32 to 64 µg/mL (≈ 42.2 to 84.4 µM); in experiment [3] it was less than 1 µg/mL; in experiment [4] (setting [12]), 32 to 64 µg/mL (≈ 42.2 to 84.4 µM); in [5] (setting [13]) it was 8 to 16 µg/mL (≈ 10.6 to 21.1 µM); in experiment [7], more than 128 µg/mL. The MIC in [9] (setting [14]) is 32 to 64 µg/mL (≈ 42.2 to 84.4 µM); in experiment [10] (setting [15]), less than 1 µg/mL; in experiment [11], 8 to 16 µg/mL (≈ 10.6 to 21.1 µM). The IC50 in experiment [6] was less than 10 µM.
For the compound `O=C(O)c1c(F)ccc2c1OB(O)[C@@H](NC(=O)C(NC(=O)N1CCN(C3CCN(C(=O)Nc4ccc(F)c(O)c4F)CC3)C1=O)c1cc(F)c(O)c(O)c1Cl)C2` (stereo partly drawn) [Example 452, (3R)-3-(2-(2-chloro-5-fluoro-3,4-dihydroxyphenyl)-2-(3-(1-((2,4-difluoro-3-hydroxyphenyl)carbamoyl)piperidin-4-yl)-2-oxoimidazolidine-1-carboxamido)acetamido)-7-fluoro-2-hydroxy-3,4-dihydro-2H-benzo[e][1,2]oxaborinine-8-carboxylic acid], the MIC in [1] is 2 to 4 µg/mL (≈ 2.47 to 4.95 µM); in [2], 2 to 4 µg/mL (≈ 2.47 to 4.95 µM); in experiment [3] it was less than 1 µg/mL; in experiment [4] (setting [12]), less than 1 µg/mL; in [5] (setting [13]) it was less than 1 µg/mL; in [8] it was less than 1 µg/mL. Also, the MIC in experiment [9] (setting [14]) is 2 to 4 µg/mL (≈ 2.47 to 4.95 µM); in [10] (setting [15]), less than 1 µg/mL; in experiment [11], less than 1 µg/mL. In addition, the IC50 in experiment [6] is less than 10 µM.
Turning to `O=C(O)c1c(F)ccc2c1OB(O)[C@@H](NC(=O)[C@H](NC(=O)N1CCN(C3CCN(C(=O)Nc4cc(F)c(F)c(O)c4F)CC3)C(=O)C1=O)c1cc(F)c(O)c(O)c1Cl)C2` [Example 491, (R)-3-((R)-2-(2-chloro-5-fluoro-3,4-dihydroxyphenyl)-2-(2,3-dioxo-4-(1-((2,4,5-trifluoro-3-hydroxyphenyl)carbamoyl)piperidin-4-yl)piperazine-1-carboxamido)acetamido)-7-fluoro-2-hydroxy-3,4-dihydro-2H-benzo[e][1,2]oxaborinine-8-carboxylic acid], the MIC in experiment [1] is 2 to 4 µg/mL (≈ 2.34 to 4.68 µM); in experiment [2] it was 2 to 4 µg/mL (≈ 2.34 to 4.68 µM); in experiment [3], less than 1 µg/mL; in experiment [4] (setting [16]) it was less than 1 µg/mL; in experiment [5] (setting [17]) it was less than 1 µg/mL; in experiment [7] it was 8 to 16 µg/mL (≈ 9.36 to 18.7 µM). For the same compound, the MIC in experiment [8] is 2 to 4 µg/mL (≈ 2.34 to 4.68 µM); in experiment [9] (setting [18]), 2 to 4 µg/mL (≈ 2.34 to 4.68 µM); in [10] (setting [19]), less than 1 µg/mL. The IC50 in [6] was less than 10 µM.
As for `O=C(O)c1c(F)ccc2c1OB(O)[C@@H](NC(=O)[C@H](NC(=O)N1CCN(C3CCN(Cc4cccnc4)CC3)C1=O)c1cc(F)c(O)c(O)c1Cl)C2` [Example 492, (R)-3-((R)-2-(2-chloro-5-fluoro-3,4-dihydroxyphenyl)-2-(2-oxo-3-(1-(pyridin-3-ylmethyl)piperidin-4-yl)imidazolidine-1-carboxamido)acetamido)-7-fluoro-2-hydroxy-3,4-dihydro-2H-benzo[e][1,2]oxaborinine-8-carboxylic acid], the MIC was less than 1 µg/mL in experiment [1]; 2 to 4 µg/mL (≈ 2.74 to 5.49 µM) in experiment [2]; less than 1 µg/mL in experiment [3]; less than 1 µg/mL in [4] (setting [16]); less than 1 µg/mL in [5] (setting [17]); less than 1 µg/mL in experiment [7]. The MIC in [8], in experiment [9] (setting [18]) and in experiment [10] (setting [19]) was less than 1 µg/mL in each case. Further, in experiment [6], the IC50 was less than 10 µM.
Turning to `O=C(O)c1c(F)ccc2c1OB(O)[C@@H](NC(=O)[C@H](NC(=O)N1CCN(C3CCN(Cc4ccncc4)CC3)C1=O)c1cc(F)c(O)c(O)c1Cl)C2` [Example 493, (R)-3-((R)-2-(2-chloro-5-fluoro-3,4-dihydroxyphenyl)-2-(2-oxo-3-(1-(pyridin-4-ylmethyl)piperidin-4-yl)imidazolidine-1-carboxamido)acetamido)-7-fluoro-2-hydroxy-3,4-dihydro-2H-benzo[e][1,2]oxaborinine-8-carboxylic acid], the MIC is 2 to 4 µg/mL (≈ 2.74 to 5.49 µM) in experiment [1]; less than 1 µg/mL in [2]; less than 1 µg/mL in [3]; less than 1 µg/mL in [4] (setting [16]); less than 1 µg/mL in experiment [5] (setting [17]); less than 1 µg/mL in experiment [7]. The MIC is less than 1 µg/mL in experiment [8], 2 to 4 µg/mL (≈ 2.74 to 5.49 µM) in experiment [9] (setting [18]) and less than 1 µg/mL in [10] (setting [19]). In experiment [6], the IC50 was less than 10 µM.
